# Tests used:
# MDAY-D2 [1] = test: MDAY-D2 tumor growth in mice, combination therapy, Example 7; assay type: in vivo
# Procedure: Twenty mice were injected subcutaneously with 2×10^5 cells on Day 1. At day 4, the mice were divided into four groups of five mice. Group one (control) received subcutaneous injections of 50 μl of water. Group two received daily intraperitoneal injections of 50 μl of 250 mM N-acetylcysteine. Group three received daily subcutaneous injections of 50 μl of 10 mg/ml of orthovanadate. Group four received daily intraperitoneal injections of 50 μl of […] N-acetylcysteine and 20 minutes later received 50 μl of subcutaneous injection of 50 μl of 10 mg/ml of orthovanadate. On day 10 the treatment was stopped. The animals were sacrificed on Day 13 and analyzed for tumor growth.
# jun = test: Northern blot analysis of jun mRNA expression in chondrocytes; assay type: cell-based, bovine
# Text: The cytokine interleukin 1 (IL 1) has been used to identify the intermediate second messengers which regulate the expression of fos and jun.
# Although IL 1 stimulated superoxide production, it was not known whether IL 1 induced fos and jun expression was dependent on the production of superoxides. In order to elucidate this possibility, the effect of DPI on fos and jun mRNA levels induced by IL 1 was investigated. RNA from chondrocytes treated with IL 1 in the presence and absence of DPI were analyzed by Northern blot analysis using either fos or collagenase cDNA probes. […] Similar data has been obtained for IL 1 induced jun expression. Furthermore, inhibition of fos and jun expression by DPI was sufficient to suppress IL 1 induced and constitutive collagenase expression.
# (§1) Bovine articular chondrocytes were isolated and plated as previously described (Kandel R. A. et al. Biochim. Biophys. Acta. 1053, 130-134, 1990). In order to determine the effect of orthovanadate on IL 1 and PMA (phorbol ester) induced responses, chondrocytes were incubated with orthovanadate (100 μM) for 2 hours before stimulation with IL 1 (10 ng/ml) or PMA ([…]). collagenase production was determined by incubating chondrocytes for 24 hours with IL 1 or PMA and the cell conditioned medium was assayed for collagenase activity using an ELISA procedure as described previously (Kandel et al. supra) PLA2 activity was measured by incorporating ^3 H-arachidonic acid (^3 H-AA) into the cells and then incubating the cells with medium containing 1 mg/ml BSA, either alone or in the presence of IL 1 or PMA, for 10 min. as previously described (Conquer, J. A. […], Biochim. Biophys. Acta. 1134, 1-6). The amount of ^3 H-AA liberated into the supernatant was determined. To measure PGE2 production, chondrocytes were incubated for 6 hours in Ham's F12 medium, either alone or with IL 1 or PMA. The supernatant was analyzed by RIA using an antibody specific for PGE2 (Dr. S. A. Jones, Mount Sinai Hospital, Toronto, Can.). In order to examine the expression of c-fos and c-jun, chondrocytes were incubated for 1 hour in the presence of IL-1, PMA or AA (3 μM). Chondrocytes were washed in PBS and the total RNA extracted as previously described (Cruz. et al, 1991, Biochem. J. 277, 327-330). RNA samples were run on formaldehyde agarose gels and transferred to nylon membrane for northern analysis using cDNA probes for c-fos and c-jun.
# [2] = Tolerability/toxicity of orthovanadate in mice, Example 9; assay type: in vivo
# Text: However, subcutaneous injections of up to 500 μgms orthovanadate is tolerated by the animals. Slow administration of the orthovanadate would decrease toxicity and the animals may tolerate higher doses.
# MDAY-D2 and HTB14 cells = test: Viability of proliferating tumor cell lines; assay type: cell-based, mouse (MDAY-D2); human (HTB14)
# Procedure: Fos and jun activity are also required for cellular proliferation in many tumor cell lines. Accordingly, the effect of orthovanadate on adherent cells and cell suspensions were examined. MDAY-D2 (a mouse lymphoid cell line grown in suspension) and HTB14 cells (an adherent human primary astrocytoma cell line) were incubated in media containing 0-50 μM orthovanadate for 48 hours. The cells were harvested and the number of viable cells determined.
# MDAY-D2 [3] = test: MDAY-D2 tumor growth in mice, three vanadyl compounds, Example 6B; assay type: in vivo
# Text: In order to examine the ability of vanadyl compounds to reduce tumor formation, growth and metastases, a specific animal model which allows investigation of all of these processes in the same animal was chosen. This model involves the injection of a metastatic haematopoietic cell line, MDAY-D2, into mice subcutaneously. These cells form a tumor at the site of injection and its size can be easily determined. In addition, these cells metastasize to the liver and metastases can be detected histologically after day 17 to 19. This model provides a very sensitive and reproducible approach to investigate the effect of vanadyl compounds on tumor growth and metastases.
# In a separate experiment using the same animal model, the effect of orthovanadate, vanadyl sulphate and vanadyl hydroperoxide administration on tumor growth in vivo was examined. On Day 1, 20 mice were injected with 2×10^5 MDAY-D2 cell subcutaneously. The mice were divided into four groups of five mice. At day 5, the animals were injected subcutaneously with 50 μl of water alone or containing 10 mg/ml of orthovanadate, 10 mg/ml of vanadyl sulphate, or 10 mg/ml of vanadyl hydroperoxide. This treatment was continued daily for 16 days. At day 21, the mice were sacrificed and the tumors dissected and weighed.
# [4] = Dose required to reach serum concentration highly toxic to cancer cells; design: species or system animals; settings: in vivo
# collagenase = test: Collagenase production by chondrocytes (ELISA of conditioned medium); assay type: cell-based, bovine; settings: orthovanadate 100 uM, 2 hours before stimulation
# Procedure: as §1, with “Chondrocytes were washed in PBS and the total RNA extracted as previously described (Cruz. et al, 1991, Biochem. J. 277, 327-330). RNA samples were run on formaldehyde agarose gels and transferred to nylon membrane for northern analysis using cDNA probes for c-fos and c-jun.” left out
# superoxides and H2O2 = test: Levels of superoxides and H2O2 in cells (conclusion of Example 1); assay type: cell-based, bovine; settings: conclusion from results
# Procedure: as §1, with “Chondrocytes were washed in PBS and the total RNA extracted as previously described (Cruz. et al, 1991, Biochem. J. 277, 327-330). RNA samples were run on formaldehyde agarose gels and transferred to nylon membrane for northern analysis using cDNA probes for c-fos and c-jun.” left out
# PLA2 = test: 3H-arachidonic acid release by chondrocytes (PLA2 activity); assay type: cell-based, bovine; settings: orthovanadate 100 uM
# Procedure: as §1, with “Chondrocytes were washed in PBS and the total RNA extracted as previously described (Cruz. et al, 1991, Biochem. J. 277, 327-330). RNA samples were run on formaldehyde agarose gels and transferred to nylon membrane for northern analysis using cDNA probes for c-fos and c-jun.” left out
# PGE2 = PGE2 production by chondrocytes (RIA); assay type: cell-based, bovine; settings: orthovanadate 100 uM
# Procedure: as §1, with “Chondrocytes were washed in PBS and the total RNA extracted as previously described (Cruz. et al, 1991, Biochem. J. 277, 327-330). RNA samples were run on formaldehyde agarose gels and transferred to nylon membrane for northern analysis using cDNA probes for c-fos and c-jun.” left out
compound,measurement,setting,value
[O]=[V]([O-])([O-])[O-] [orthovanadate],animals that died during the experiment,"MDAY-D2 [1]; 10 mg/ml s.c. daily, group of five mice",One orthovanadate treated animal died
same,animals without detectable tumors,"MDAY-D2 [1]; day 13, FIG. 14, orthovanadate: of four mice, combination: of five",two had no detectable tumors
same,"IL 1, PMA and AA induced c-jun expression","jun; orthovanadate 100 μM, FIGS. 4 and 18",completely inhibited
same,jun expression in response to factors such as IL 1 or arachidonic acid,jun; summary statement,completely inhibit
same,intraperitoneal toxicity,"[2]; intraperitoneal, high doses",toxic
same,oral toxicity,"[2]; oral, 0.5 mg/ml, laboratory mice",gastric toxicity
same,"tolerated dose, subcutaneous",[2]; subcutaneous injections,up to 500 μgms
same,time by which cell death was observed,MDAY-D2 and HTB14 cells,≤ 24 h
same,"cell death, concentration dependence","MDAY-D2 and HTB14 cells; 0-50 μM, 48 hours, FIG. 7",concentration dependent increase in cell death
same,cell death completeness,MDAY-D2 and HTB14 cells; within 3 days of continuous treatment,over 98%
same,"effect on tumor growth, in words",MDAY-D2 [3]; 10 mg/ml s.c. daily,most efficacy in reducing tumor growth
same,mice without detectable tumors,"MDAY-D2 [3]; 10 mg/ml s.c., day 21",one mouse did not have detectable tumors
same,animals that died,"MDAY-D2 [3]; 10 mg/ml, 50 μl s.c. daily for 16 days, groups of five mice",One animal died
same,dose required to reach serum concentrations highly toxic to cancer cells,[4],at least 0.2 mg/kg
same,collagenase production (IL 1 or PMA),collagenase,completely inhibited
same,levels of superoxides and H2O2 in cells,superoxides and H2O2,indirectly reduce
same,IL 1 or PMA induced release of 3H-AA,PLA2,did not inhibit
same,production of PGE2 (IL 1 or PMA),PGE2,did not inhibit

# — US5843481A, “Treatment of proliferative disorders, metastasaes, and drug resistant tumors with vanadate compounds and derivatives or analogues thereof” (priority 1994, dated 1998)
